Source: US20220323591A1, “HEPARIN NANO DRUG CARRIER SYSTEM LOADED WITH AMINO ANTI-TUMOR DRUG AND PREPARATION METHOD THEREOF” (NANJING KING-FRIEND BIOCHEMICAL PHARMACEUTICAL CO., LTD., priority 2020, published 2022)

Columns and labels:
[1] = tested on: 4T1 breast cancer xenograft tumors; assay: In vivo experiment of breast cancer cells, daunorubicin nano drug carrier systems; settings: 3 mg/kg via caudal veins, once every three days, 4 times; 4T1 in BALB/c mice
Protocol: Anti-tumor effects of nanoparticles in vivo are studied in BALB/c mice with 4T1 breast cancer xenograft tumors. Free daunorubicin (Group I), daunorubicin-Py-PEG-HP (Group II) and daunorubicin-Mal-PEG-HP (Group III) are administered via caudal veins at a dose of 3 mg/kg, for once every three days and in total 4 times, with the free daunorubicin group (Group I) as the control.

[2] = tested on: acute promyelocytic leukemia (HL-60) cells; assay: Uptake experiment of leukemia cells; format: cell-based; settings: 1×10^5/ml
Protocol: An uptake experiment of free daunorubicin, daunorubicin-Py-PEG-HP and daunorubicin-Mal-PEG-HP with acute promyelocytic leukemia (HL-60) cells: the concentration of HL-60 cells is adjusted to 1×10^5/ml, and the cells are added into a 24 -well plate with 1 ml per well; a certain concentration of pure DNR solution and a certain concentration of DNR-NP suspension are added into a culture plate, and cultured for a certain time, then the cells are taken out at five time points (30 min, 60 min, 90 min, 120 min and 180 min) respectively; centrifugation is performed at 4° C. under 1000 rpm for 5 min, and the cells are collected, and then washed twice using a RPM11640 medium added with serum; the cells are lysed with 1.5 ml of 50 μg/ml protease K and a 1% SDS solution, with continuous shaking performed at 37° C. for 12 hours, and a cell extract is collected; and the drug content in the cells is calculated by a fluorescence intensity standard curve.

[3] = tested on: xenotransplantation 4T1 tumor model; assay: In vivo experiment of breast cancer cells, lenalidomide and lapatinib nano drug carrier systems; set-up: species or system BALB/c mice; settings: 4 mg/kg via caudal veins, once every two days, 5 times; normal saline as control
Protocol: The anti-tumor effect of nanoparticles in vivo is based on investigation of a xenotransplantation 4T1 tumor model established in the BALB/c mice. Each of groups represents normal saline (Group I), free lenalidomide (Group II), lenalidomide-Py-PEG-HP (Group III), […] lenalidomide-Mal-PEG-HP (Group IV), free lapatinib (Group V), lapatinib-Py-PEG-HP (Group VI) and lapatinib-Mal-PEG-HP (Group VII) respectively, wherein they are administrated via caudal veins at a dosage of 4 mg/kg, once every two days, with a total of 5 times. As shown in the diagram below, the tumor development is detected on the second day after administration.

[4] = tested on: 5T33 multiple myeloma cells; assay: In vivo experiment of multiple myeloma; set-up: species or system mice
Protocol: Thirty 6-week-old mice are divided into three groups, which are administrated with free lenalidomide (Group I), lenalidomide-Py-PEG-HP (Group II) and lenalidomide-Mal-PEG-HP (Group III) respectively. Male and female animals in each group are halved, and there is no statistically significant difference in body weight among animals in each group. The dosage of free lenalidomide group is 0.1 ml/kg body weight/day, and the dosage of lenalidomide-Py-PEG-HP group and lenalidomide-Mal-PEG-HP group is 20 mg/kg (body weight/day).
One week after injection of 1,000,000 5T33 multiple myeloma cells into the tail veins of mice, drugs are administered subcutaneously according to the above scheme, for three times a week. During the administration period, the animals are weighed every day, and the dosage on that day is determined according to the weight, and the animals are continuously administered until death of the mice. The venous blood of mice is collected and stored every week, and the time of death of mice is recorded.
According to the statistical test, there is significant difference in the survival time of mice when free lenalidomide group is compared with heparin nano drug carrier system (P<0.05), as shown in Table 1. There is significant difference in the tumor load in serum of mice when the free lenalidomide group is compared with heparin nano drug carrier system (P<0.05), as shown in Table 2.

Row | Structure (SMILES) | anti-tumor effect (tumor volume) [1] | uptake efficiency [2] | anti-tumor effect (tumor development) [3] | Average survival days of mice after drug injection ([4]; 5T33 mice, subcutaneous, three times a week, free lenalidomide 0.1 ml/kg body weight/day, conjugates 20 mg/kg) | Average tumor load in serum of mice after drug injection ([4]; 1 day, mouse LGg2b concentration) | Average tumor load in serum of mice after drug injection ([4]; 8 days) | Average tumor load in serum of mice after drug injection ([4]; 15 days) | Average tumor load in serum of mice after drug injection ([4]; 22 days) | Average tumor load in serum of mice after drug injection ([4]; 29 days)
1 | COc1cccc2c1C(=O)c1c(O)c3c(c(O)c1C2=O)C[C@@](O)(C(C)=O)C[C@@H]3O[C@H]1C[C@H](N)[C@H](O)[C@H](C)O1 [free daunorubicin, daunorubicin] | insignificant anti-tumor activity | 16% |  |  |  |  |  |  | 
2 | CS(=O)(=O)CCNCc1ccc(-c2ccc3ncnc(Nc4ccc(OCc5cccc(F)c5)c(Cl)c4)c3c2)o1 [free lapatinib, lapatinib] |  |  | have the anti-tumor activity |  |  |  |  |  | 
3 | Nc1cccc2c1CN(C1CCC(=O)NC1=O)C2=O (stereo not shown) [free lenalidomide, lenalidomide] |  |  | have the anti-tumor activity | 35 days | 125.3 µg/mL | 206.5 µg/mL | 335.2 µg/mL | 611.4 µg/mL | 864.1 µg/mL
